The source of these data is US12491514B2, “Device, system, and method for trapping tissue samples” (University of Washington, priority 2019, dated 2025).

One assay deals with U87 glioma cuboids. Kind of assay: Drug treatment of U87 glioma cuboids on the microfluidic device, SYTOX green/Hoechst cell death staining. It is filed as cell-based. As to conditions: for cell death response, mean fluorescence ratio SG dead nuclear to Hoechst pan-nuclear: 2 days (day 1 to day 3), U87 cuboids in device. The method, then:
U87 cuboids were cultured in collagen hydrogel. We prepared 80% collagen (Corning rat tail collagen type 1, 354236, 3-4 mg/mL), 10% 10×PBS, and 10% serum-free medium. We then used filtered-sterilized 1M NaOH to neutralize the pH to ˜7.2. For culture in 6 well plates, cuboids were cultured in 1 mL collagen on top of a 0.4 μm filter Transwell PFTE membrane insert (PICMORG50, Millipore) with 1.3 mL culture medium placed below. Cuboids were cultured both with and without an additional layer of pre-gelled 1 mL collagen below with similar histology and staining observed, apart from a relatively flatter shape often seen without the extra collagen layer. The culture medium contained Neurobas al-A medium (Invitrogen) with 25% heat-inactivated horse serum (Sigma), Glutamax (Invitrogen), 2× penicillin/streptomycin (Invitrogen), and growth factors (EGF 20 ng/mL and FGF 20 ng/mL, Preprotech or Invitrogen). Cisplatin (3 mM stock in dH2O, MedChem Express) was diluted in cell culture medium for the drug treatment experiment. Liver cuboids were cultured in 1 mL of collagen hydrogel on a Millipore insert with constant shaking. Culture medium was William's Medium (with L-glutamine, Invitrogen, Scotland) supplemented with 25 mM glucose (Sigma-Aldrich, USA), 30 nM insulin (ITS+premix, Zen-Bio, Inc., USA), 1 nM EGF (Preprotech), 5% Pen Strep (Sigma-Aldrich, USA), 100 nM glucagon (Sigma-Aldrich, USA). Live U87 glioma cuboids were stained for 1 hour, 37° C., with the following dyes (individually or in combination) diluted in culture medium: Cell Tracker Green CMFDA (Invitrogen, 10 μM), Cell Tracker Orange CMRA (Invitrogen, 10 μM), Hoechst (H; Invitrogen, 16 μM), and/or SYTOX green (SG; Invitrogen, 0.01 μM). […] Mean SG fluorescence was normalized to the average value of untreated cuboids. […] As a straightforward simple measure of cell viability, we measured the mean fluorescence ratio in epifluorescence images of SG dead nuclear fluorescence to Hoechst pan-nuclear fluorescence (FIG. 12B). […]

The next assay concerns U87 glioma slices. Nature of the assay: Previous experiments with U87 glioma slices on and off a microfluidic device, SG/H live viability staining. The conditions noted are these: 30 and 100 μM. The class given is cell-based.

For the molecule `N.N.[Cl][Pt][Cl]` [cisplatin], the entries for the “cell death response, mean fluorescence ratio SG dead nuclear to Hoechst pan-nuclear” value in the assay with U87 glioma cuboids (30 μM) and in the assay on U87 glioma cuboids (100 μM) were “statistically significant response” and “showing a trend”, respectively. Also, the “mean increase of SG (SYTOX green dead stain) fluorescence normalized to the mean” value in the assay on U87 glioma cuboids (100 μM, 2-day maximal drug treatment, used as threshold for death) is 1.4. Besides, the “response by SG/H live viability staining” value in the assay with U87 glioma slices is on record as “cell death”.
